The text below walks through data of patent publication US12590096B2, “Imidazo[2,1-f][1,2,4]triazin-4-amine as TLR8 agonists” (BeOne Medicines | GmbH, priority 2019, dated 2026).

SMILES strings stand for the structures. pEC50: −log10 of the molar value. Where only a bound is given, the exact number is not on record here.

For the first assay, the target named is T1, human TLR 8 protein in HEK-blue hTLR 8 tool cell line (Homo sapiens, UniProt Q9NR97).
T1 construct: expressed in transfected cells; host or cells: HEK293 (HEK-Blue hTLR8)
T1 sequence (Q9NR97 27-1041): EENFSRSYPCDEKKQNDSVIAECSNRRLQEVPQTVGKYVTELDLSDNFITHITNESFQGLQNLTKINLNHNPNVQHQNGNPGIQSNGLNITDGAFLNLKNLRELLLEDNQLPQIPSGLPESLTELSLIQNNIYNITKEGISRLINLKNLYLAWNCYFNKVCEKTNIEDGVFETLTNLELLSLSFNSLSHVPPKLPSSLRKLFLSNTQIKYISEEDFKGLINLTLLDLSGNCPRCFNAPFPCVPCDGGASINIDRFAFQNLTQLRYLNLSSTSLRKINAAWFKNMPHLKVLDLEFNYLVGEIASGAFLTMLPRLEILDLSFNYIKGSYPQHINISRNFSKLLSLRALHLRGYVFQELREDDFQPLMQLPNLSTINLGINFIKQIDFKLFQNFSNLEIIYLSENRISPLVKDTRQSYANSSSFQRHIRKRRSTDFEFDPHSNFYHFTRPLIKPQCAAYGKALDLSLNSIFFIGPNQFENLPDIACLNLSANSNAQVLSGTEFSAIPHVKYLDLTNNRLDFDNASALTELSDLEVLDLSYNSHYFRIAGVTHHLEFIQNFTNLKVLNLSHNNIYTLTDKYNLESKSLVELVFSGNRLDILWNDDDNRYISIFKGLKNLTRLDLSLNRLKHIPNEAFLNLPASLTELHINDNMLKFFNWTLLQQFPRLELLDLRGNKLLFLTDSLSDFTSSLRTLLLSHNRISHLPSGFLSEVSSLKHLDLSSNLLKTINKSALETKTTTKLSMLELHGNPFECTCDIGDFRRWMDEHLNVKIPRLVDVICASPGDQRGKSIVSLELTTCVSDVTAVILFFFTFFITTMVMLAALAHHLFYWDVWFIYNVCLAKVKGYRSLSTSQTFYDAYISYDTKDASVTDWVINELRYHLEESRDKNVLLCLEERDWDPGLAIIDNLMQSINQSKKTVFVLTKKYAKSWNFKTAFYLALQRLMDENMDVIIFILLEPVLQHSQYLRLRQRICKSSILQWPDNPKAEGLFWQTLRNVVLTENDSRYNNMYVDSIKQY
Kind of assay: TLR8 stimulation determined by HEK-Blue Detection (NF-κB/SEAP reporter). Format: cell-based. To be noted: HEK-Blue hTLR8 cells, 16 h incubation, relative to maximum activation by Resiquimod or motolimod; read-out: EC50 (nmol). An excerpt:
TLR8 Stimulation Determined by HEK-Blue Detection
This assay was designed to study the stimulation of human TLR 8 protein in HEK-blue hTLR 8 tool cell line by monitoring the activation of NF-κB. HEK-blue hTLR8 cells were obtained by co-transfection of hTLR8 gene and optimized secretory embryonic alkaline phosphatase (SEAP) reporter gene into HEK293 cells. SEAP reporter gene was put under the control of […] minimal promoter fused with five NF-κB and AP-1-binding sites. NF-κB and AP-1 were activated by stimulation with TLR 8 ligand, thus inducing the expression of SEAP. The level of SEAP can be easily determined by HEK-Blue Detection (a cell culture medium that allows real-time detection of SEAP). HEK-Blue Detection comprises all nutrients needed for cell growth and specific SEAP color substrates. The hydrolysis of substrate by SEAP produces purple/blue color which can be measured by spectrophotometer.
When growing to 50-80% confluence, HEK-Blue hTLR7/8 cells were plated into 96-well plates (costar 3599) at a density of 40,000 cells/well. Then, the compound serially diluted at 10 points with a final concentration ranging from 1 nM to 10 μm in 0.1% DMSO/HEK-Blue Detection was added. The plates were then incubated in 5% CO2 at 37° C. for 16 h. Optical density at 620-655 nm was read on BMG PHERAstar FSX instrument. The EC50 of each compound was determined by calculating the maximum activation percentage identified using Resiquimod or motolimod.
The EC50 of the tested compound of the present invention is as follows.
In the case of `Cc1cnc(COc2nc(N)c3ncc(CC4CCNCC4)n3n2)s1` [Compound B44, 2-((5-methylthiazol-2-yl)methoxy)-7-(piperidin-4-ylmethyl)imidazo[2,1-f][1,2,4]triazin-4-amine], the pEC50 was below 5.00.

Take `CCCC(C)Oc1nc(N)c2ncc(CN3CCC(CNC)CC3)n2n1` (centres unmarked) [Compound B22]: the pEC50 is below 5.00.

As to `CCCC(C)Oc1nc(N)c2ncc(CN3CCN[C@H](C)C3)n2n1` (stereo partly drawn) [Compound B15, 7—(((R)-3-methylpiperazin-1-yl)methyl)-2-(pent-2-yloxy)imidazo[2,1-f][1,2,4]triazin-4-amine], the pEC50 is 5.97.

Take `CCC[C@H](C)Oc1nc(N)c2ncc(CC3CC4CCC(C3)N4)n2n1` (stereo partly drawn) [Compound B56, 7-((8-azabicyclo[3.2.1]oct-3-yl)methyl)-2-(((S)-pent-2-yl)oxy)imidazo[2,1-f][1,2,4]triazin-4-amine]: the negative logarithm of the EC50 (pEC50) is 5.72.

For the compound `CCC[C@H](C)Oc1nc(N)c2ncc(CC3CC4(CCNCC4)C3)n2n1` [Compound B50, (S)-7-((7-azaspiro[3.5]non-2-yl)methyl)-2-(pent-2-yloxy)imidazo[2,1-f][1,2,4]triazin-4-amine], the pEC50 is 6.68.

Turning to `CCC[C@H](C)Oc1nc(N)c2ncc(CC3CCN(CC(C)NC)CC3)n2n1` (stereo partly drawn) [Compound B54, 7-((1-(2-(methylamino)propyl)piperidin-4-yl)methyl)-2-(((S)-pent-2-yl)oxy)imidazo[2,1-f][1,2,4]triazin-4-amine], the pEC50 is 7.66.

As for `CCCC(C)Oc1nc(N)c2ncc(CN3CCN[C@@H](C)C3)n2n1` (stereo partly drawn) [Compound B16, 7—(((S)-3-methylpiperazin-1-yl)methyl)-2-(pent-2-yloxy)imidazo[2,1-f][1,2,4]triazin-4-amine], the negative logarithm of the EC50 (pEC50) was 5.07.

`CCCC(CCC)Oc1nc(N)c2ncc(CC3CCNCC3)n2n1` [Compound B47, 2-(hept-4-yloxy)-7-(piperidin-4-ylmethyl)imidazo[2,1-f][1,2,4]triazin-4-amine]: the pEC50 is 7.08.

In the case of `CCCC(C)Oc1nc(N)c2ncc(C3(O)CC4(CCNCC4)C3)n2n1` (centres unmarked) [Compound B24, 2-(4-amino-2-(pent-2-yloxy)imidazo[2,1-f][1,2,4]triazin-7-yl)-7-azaspiro[3.5]nona-2-ol], the pEC50 was below 5.00.

`CCCC(CCO)Oc1nc(N)c2ncc(CC3CCNCC3)n2n1` (centres unmarked) [Compound B28, 3-((4-amino-7-(piperidin-4-ylmethyl)imidazo[2,1-f][1,2,4]triazin-2-yl)oxy)hexan-1-ol]: the pEC50 is 6.51.

Turning to `CCCC(C)Oc1nc(N)c2ncc(CC3(C)CCNCC3)n2n1` (centres unmarked) [Compound B8, 7-((4-methylpiperidin-4-yl)methyl)-2-(pent-2-yloxy)imidazo[2,1-f][1,2,4]triazin-4-amine], the pEC50 was 6.29.

Regarding `CCC[C@H](C)Oc1nc(N)c2ncc(CC3CCCN3)n2n1` (stereo partly drawn) [Compound B42, 2-(((S)-pent-2-yl)oxy)-7-(pyrrolidin-2-ylmethyl)imidazo[2,1-f][1,2,4]triazin-4-amine], the negative-log EC50 (pEC50) is 7.44.

On to `CCC[C@H](C)Oc1nc(N)c2ncc(CC3CCNCC3(C)C)n2n1` (stereo partly drawn) [Compound B53, 7-((3,3-dimethylpiperidin-4-yl)methyl)-2-(((S)-pent-2-yl)oxy)imidazol[2,1-f][1,2,4]triazin-4-amine], for which the pEC50 is 5.41.

Take `CCCC(C)Nc1nc(N)c2ncc(CC3CCNCC3)n2n1` (centres unmarked) [Compound B5, N2-(pent-2-yl)-7-(piperidin-4-ylmethyl)imidazo[2,1-f][1,2,4]triazin-2,4-diamine]: the pEC50 was 6.04.

Consider `CCC[C@H](C)Oc1nc(N)c2ncc(CC34CC(N)(C3)C4)n2n1` [Compound B40, (S)-7-((3-aminobicyclo[1.1.1]pent-1-yl)methyl)-2-(pent-2-yloxy)imidazo[2,1-f][1,2,4]triazin-4-amine], for which the pEC50 is 6.00.

In the case of `CCCC(C)Oc1nc(N)c2ncc(CN3CCC(NC)CC3)n2n1` (centres unmarked) [Compound B21, 7-((4-(methylamino)piperidin-1-yl)methyl)-2-(pent-2-yloxy)imidazo[2,1-f][1,2,4]triazin-4-amine], the pEC50 was below 5.00.

Turning to `CCC[C@H](C)Oc1nc(N)c2ncc(CC3CCC4(CC3)CNC4)n2n1` [Compound B43, (S)-7-((2-azaspiro[3.5]non-7-yl)methyl)-2-(pent-2-yloxy)imidazo[2,1-f][1,2,4]triazin-4-amine], the pEC50 was 7.62.

With `CCC[C@H](C)Oc1nc(N)c2ncc(CC3CCN(CC4CCNCC4)CC3)n2n1` [Compound B14, (S)-2-(pent-2-yloxy)-7-((1-(piperidin-4-ylmethyl)piperidin-4-yl)methyl)imidazo[2,1-f][1,2,4]triazin-4-amine], the pEC50 was 6.86.

`CCCC(C)Oc1nc(N)c2ncc(CN3CCNC[C@H]3C)n2n1` (stereo partly drawn) [Compound B18, 7—(((R)-2-methylpiperazin-1-yl)methyl)-2-(pent-2-yloxy)imidazo[2,1-f][1,2,4]triazin-4-amine]: the pEC50 is 5.57.

Regarding `CCC[C@H](C)Oc1nc(N)c2ncc(CC3CCCNC3)n2n1` (stereo partly drawn) [Compound B10, 2—(((S)-pent-2-yl)oxy)-7-(piperidin-3-ylmethyl)imidazo[2,1-f][1,2,4]triazin-4-amine], the pEC50 was 6.76.

Take `CCC[C@H](C)Oc1nc(N)c2ncc(CC3CNC3)n2n1` [Compound B39, (S)-7-(azetidin-3-ylmethyl)-2-(pent-2-yloxy)imidazo[2,1-f][1,2,4]triazin-4-amine]: the pEC50 was 6.90.

As to `CCCCOc1nc(N)c2ncc(CCC3CCNCC3)n2n1` [Compound B3, 2-butoxy-7-(2-(piperidin-4-yl)ethyl)imidazo[2,1-f][1,2,4]triazin-4-amine], the pEC50 was 6.46.

Take `CCC(CC)Oc1nc(N)c2ncc(CC3CCNCC3)n2n1` [Compound B48, 2-(pent-3-yloxy)-7-(piperidin-4-ylmethyl)imidazo[2,1-f][1,2,4]triazin-4-amine]: the pEC50 is 7.83.

As to `CCC[C@H](C)Oc1nc(N)c2ncc(CC3CCNCC3C)n2n1` (stereo partly drawn) [Compound B60, 7-((3-methylpiperidin-4-yl)methyl)-2-(((S)-pent-2-yl)oxy)imidazo[2,1-f][1,2,4]triazin-4-amine], the pEC50 is 6.04.

Take `CCC[C@H](C)Oc1nc(N)c2ncc(NC3CCNCC3)n2n1` [Compound B37, (S)-2-(pent-2-yloxy)-N7-(piperidin-4-yl)imidazo[2,1-f][1,2,4]triazin-4,7-diamine]: the pEC50 was below 5.00.

Take `CCCC(C)Oc1nc(N)c2ncc(CN3CCNCC3)n2n1` (centres unmarked) [Compound B9, 2-(pent-2-yloxy)-7-(piperazin-1-ylmethyl)imidazo[2,1-f][1,2,4]triazin-4-amine]: the pEC50 was 6.28.

Regarding `Nc1nc(OCC2CCOC2)nn2c(CC3CCNCC3)cnc12` (centres unmarked) [Compound B46, 7-(piperidin-4-ylmethyl)-2-((tetrahydrofuran-3-yl)methoxy)imidazo[2,1-f][1,2,4]triazin-4-amine], the pEC50 was below 5.00.

On to `CCCC(C)Oc1nc(N)c2ncc(CC3CCCCC3)n2n1` (centres unmarked) [Compound B29, 7-(cyclohexylmethyl)-2-(pent-2-yloxy)imidazo[2,1-f][1,2,4]triazin-4-amine], for which the pEC50 is below 5.00.

The assay is the same for the next values; noted with them: HEK-Blue hTLR8 cells, 16 h incubation; unit μM; read-out: EC50.
As for `CCC[C@H](C)Oc1nc(N)c2ncc(CC3CCNCC3(F)F)n2n1` (stereo partly drawn) [Compound B57, 7-((3,3-difluorpiperidin-4-yl)methyl)-2-(((S)-pent-2-yl)oxy)imidazo[2,1-f][1,2,4]triazin-4-amine], the EC50 is above 10 µM.

By pEC50 is commonly meant −log10 of the EC50, conventionally taken in molar units. Usually EC50 stands for the concentration needed to bring the measured effect to its halfway point.
